Assay results taken from PubChem BioAssay (NCI).
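In this assay, cells in 96-well plates receive the compound at five concentrations for 48 hours. Endpoints are linearly interpolated between the surrounding concentrations. TGI: concentration producing complete growth inhibition.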

Assays:
Test in all cases: NCI anticancer screen, dose series, 48 h
SN12C renal = test system: SN12C renal
UO-31 renal = test system: UO-31 renal
SK-OV-3 ovarian = test system: SK-OV-3 ovarian
HOP-62 NSCLC = test system: HOP-62 NSCLC
SNB-75 CNS = test system: SNB-75 CNS
KM12 colon = test system: KM12 colon
UACC-257 melanoma = test system: UACC-257 melanoma
COLO 205 colon = test system: COLO 205 colon
OVCAR-3 ovarian = test system: OVCAR-3 ovarian
MDA-N = test system: MDA-N
A498 renal = test system: A498 renal
NCI-H23 lung = test system: NCI-H23 lung
EKVX NSCLC = test system: EKVX NSCLC
OVCAR-8 ovarian = test system: OVCAR-8 ovarian
NCI/ADR-RES ovarian = test system: NCI/ADR-RES ovarian
MCF7 breast = test system: MCF7 breast
ACHN renal = test system: ACHN renal
NCI-H522 lung = test system: NCI-H522 lung
A549 NSCLC = test system: A549 NSCLC
SNB-19 CNS = test system: SNB-19 CNS
MALME-3M melanoma = test system: MALME-3M melanoma
HCC-2998 colon = test system: HCC-2998 colon
SK-MEL-28 melanoma = test system: SK-MEL-28 melanoma
786-0 renal = test system: 786-0 renal
MOLT-4 leukemia = test system: MOLT-4 leukemia
CCRF-CEM leukemia = test system: CCRF-CEM leukemia
CAKI-1 renal = test system: CAKI-1 renal
HS 578T breast = test system: HS 578T breast
HCT-116 colon = test system: HCT-116 colon
BT-549 breast = test system: BT-549 breast
RXF 393 renal = test system: RXF 393 renal
HCT-15 colon = test system: HCT-15 colon
SK-MEL-2 melanoma = test system: SK-MEL-2 melanoma
T-47D breast = test system: T-47D breast
RPMI-8226 leukemia = test system: RPMI-8226 leukemia
SF-295 CNS = test system: SF-295 CNS
HT29 colon = test system: HT29 colon
M14 melanoma = test system: M14 melanoma
TK-10 renal = test system: TK-10 renal
OVCAR-5 ovarian = test system: OVCAR-5 ovarian
NCI-H226 lung = test system: NCI-H226 lung
NCI-H460 lung = test system: NCI-H460 lung
PC-3 prostate = test system: PC-3 prostate
DU-145 prostate = test system: DU-145 prostate
SF-539 CNS = test system: SF-539 CNS
IGROV1 ovarian = test system: IGROV1 ovarian
U251 CNS = test system: U251 CNS
SF-268 CNS = test system: SF-268 CNS
UACC-62 melanoma = test system: UACC-62 melanoma
MDA-MB-231 breast = test system: MDA-MB-231 breast
MDA-MB-435 = test system: MDA-MB-435
SW-620 colon = test system: SW-620 colon
SK-MEL-5 melanoma = test system: SK-MEL-5 melanoma
HL-60(TB) leukemia = test system: HL-60(TB) leukemia
OVCAR-4 ovarian = test system: OVCAR-4 ovarian
HOP-92 NSCLC = test system: HOP-92 NSCLC
K-562 leukemia = test system: K-562 leukemia
LOX IMVI melanoma = test system: LOX IMVI melanoma
SR leukemia = test system: SR leukemia

For `Cc1nc2ncn3c(c-2c1Cc1ccccc1)NC=C(O)N3`, the TGI (SN12C renal) was greater than 100 µM, the TGI (UO-31 renal) was greater than 100 µM and the TGI (SK-OV-3 ovarian) was greater than 100 µM. The TGI (HOP-62 NSCLC) was greater than 100 µM, the TGI (SNB-75 CNS) was 67.8 µM and the TGI (KM12 colon) was greater than 100 µM. It also gave a TGI (UACC-257 melanoma) greater than 100 µM, a TGI (COLO 205 colon) greater than 100 µM and a TGI (OVCAR-3 ovarian) greater than 100 µM. It also gave a TGI (MDA-N) greater than 100 µM, a TGI (A498 renal) greater than 100 µM and a TGI (NCI-H23 lung) greater than 100 µM. For the same compound, the TGI (EKVX NSCLC) was greater than 100 µM, the TGI (OVCAR-8 ovarian) was greater than 100 µM and the TGI (NCI/ADR-RES ovarian) was greater than 100 µM. The TGI (MCF7 breast) was greater than 100 µM, the TGI (ACHN renal) was greater than 100 µM and the TGI (NCI-H522 lung) was greater than 100 µM. For the same compound, the TGI (A549 NSCLC) was greater than 100 µM, the TGI (SNB-19 CNS) was greater than 100 µM and the TGI (MALME-3M melanoma) was greater than 100 µM. For the same compound, the TGI (HCC-2998 colon) was greater than 100 µM, the TGI (SK-MEL-28 melanoma) was greater than 100 µM and the TGI (786-0 renal) was greater than 100 µM. The TGI (MOLT-4 leukemia) was greater than 100 µM, the TGI (CCRF-CEM leukemia) was greater than 100 µM and the TGI (CAKI-1 renal) was greater than 100 µM. The TGI (HS 578T breast) was greater than 100 µM, the TGI (HCT-116 colon) was greater than 100 µM and the TGI (BT-549 breast) was greater than 100 µM. The TGI (RXF 393 renal) was 64 µM, the TGI (HCT-15 colon) was greater than 100 µM and the TGI (SK-MEL-2 melanoma) was greater than 100 µM. For the same compound, the TGI (T-47D breast) was 61.3 µM, the TGI (RPMI-8226 leukemia) was greater than 100 µM and the TGI (SF-295 CNS) was greater than 100 µM. It also gave a TGI (HT29 colon) greater than 100 µM, a TGI (M14 melanoma) greater than 100 µM and a TGI (TK-10 renal) greater than 100 µM. It also gave a TGI (OVCAR-5 ovarian) greater than 100 µM, a TGI (NCI-H226 lung) greater than 100 µM and a TGI (NCI-H460 lung) greater than 100 µM. For the same compound, the TGI (PC-3 prostate) was greater than 100 µM, the TGI (DU-145 prostate) was greater than 100 µM and the TGI (SF-539 CNS) was greater than 100 µM. The TGI (IGROV1 ovarian) was 65.7 µM, the TGI (U251 CNS) was greater than 100 µM and the TGI (SF-268 CNS) was greater than 100 µM. The TGI (UACC-62 melanoma) was greater than 100 µM, the TGI (MDA-MB-231 breast) was greater than 100 µM and the TGI (MDA-MB-435) was greater than 100 µM. For the same compound, the TGI (SW-620 colon) was greater than 100 µM, the TGI (SK-MEL-5 melanoma) was greater than 100 µM and the TGI (HL-60(TB) leukemia) was greater than 100 µM. For the same compound, the TGI (OVCAR-4 ovarian) was greater than 100 µM.
`C1=C(c2ccccc2)SC=C(c2ccccc2)S1` gave a TGI (SN12C renal) greater than 100 µM, a TGI (UO-31 renal) greater than 100 µM and a TGI (SK-OV-3 ovarian) greater than 100 µM. The TGI (HOP-62 NSCLC) was greater than 100 µM, the TGI (SNB-75 CNS) was 64 µM and the TGI (KM12 colon) was greater than 100 µM. For the same compound, the TGI (UACC-257 melanoma) was greater than 100 µM, the TGI (COLO 205 colon) was greater than 100 µM and the TGI (OVCAR-3 ovarian) was greater than 100 µM. For the same compound, the TGI (MDA-N) was 36.5 µM, the TGI (A498 renal) was greater than 100 µM and the TGI (NCI-H23 lung) was greater than 100 µM. For the same compound, the TGI (EKVX NSCLC) was greater than 100 µM, the TGI (OVCAR-8 ovarian) was greater than 100 µM and the TGI (HOP-92 NSCLC) was greater than 100 µM. It also gave a TGI (NCI/ADR-RES ovarian) of 64 µM, a TGI (MCF7 breast) of 48.2 µM and a TGI (ACHN renal) greater than 100 µM. The TGI (A549 NSCLC) was greater than 100 µM, the TGI (SNB-19 CNS) was greater than 100 µM and the TGI (MALME-3M melanoma) was greater than 100 µM. For the same compound, the TGI (SK-MEL-28 melanoma) was greater than 100 µM, the TGI (786-0 renal) was greater than 100 µM and the TGI (MOLT-4 leukemia) was greater than 100 µM. The TGI (CCRF-CEM leukemia) was greater than 100 µM, the TGI (CAKI-1 renal) was greater than 100 µM and the TGI (HS 578T breast) was greater than 100 µM. The TGI (HCT-116 colon) was greater than 100 µM, the TGI (BT-549 breast) was 84.8 µM and the TGI (RXF 393 renal) was 48.1 µM. The TGI (HCT-15 colon) was greater than 100 µM, the TGI (K-562 leukemia) was 89.3 µM and the TGI (T-47D breast) was greater than 100 µM. The TGI (RPMI-8226 leukemia) was greater than 100 µM, the TGI (SF-295 CNS) was greater than 100 µM and the TGI (HT29 colon) was 75.1 µM. The TGI (M14 melanoma) was greater than 100 µM, the TGI (TK-10 renal) was greater than 100 µM and the TGI (OVCAR-5 ovarian) was greater than 100 µM. The TGI (NCI-H226 lung) was 81.8 µM, the TGI (NCI-H460 lung) was greater than 100 µM and the TGI (PC-3 prostate) was greater than 100 µM. It also gave a TGI (DU-145 prostate) greater than 100 µM, a TGI (SF-539 CNS) greater than 100 µM and a TGI (LOX IMVI melanoma) greater than 100 µM. The TGI (IGROV1 ovarian) was greater than 100 µM, the TGI (U251 CNS) was greater than 100 µM and the TGI (SF-268 CNS) was greater than 100 µM. It also gave a TGI (UACC-62 melanoma) greater than 100 µM, a TGI (MDA-MB-231 breast) greater than 100 µM and a TGI (MDA-MB-435) of 32.2 µM. For the same compound, the TGI (SW-620 colon) was greater than 100 µM, the TGI (SK-MEL-5 melanoma) was 77.9 µM and the TGI (HL-60(TB) leukemia) was greater than 100 µM. For the same compound, the TGI (OVCAR-4 ovarian) was greater than 100 µM.
`CC(=O)C(=[N+]=[N-])C(=O)OCCOC(=O)C(=[N+]=[N-])C(C)=O` showed a TGI (SN12C renal) greater than 1 µM, a TGI (SR leukemia) greater than 1 µM and a TGI (UO-31 renal) greater than 1 µM. It also gave a TGI (SK-OV-3 ovarian) greater than 1 µM, a TGI (HOP-62 NSCLC) greater than 1 µM and a TGI (SNB-75 CNS) greater than 1 µM. For the same compound, the TGI (KM12 colon) was greater than 1 µM, the TGI (UACC-257 melanoma) was greater than 1 µM and the TGI (OVCAR-3 ovarian) was greater than 1 µM. The TGI (MDA-N) was greater than 1 µM, the TGI (A498 renal) was greater than 1 µM and the TGI (NCI-H23 lung) was greater than 1 µM. For the same compound, the TGI (EKVX NSCLC) was greater than 1 µM, the TGI (OVCAR-8 ovarian) was greater than 1 µM and the TGI (HOP-92 NSCLC) was greater than 1 µM. The TGI (MCF7 breast) was greater than 1 µM, the TGI (ACHN renal) was greater than 1 µM and the TGI (A549 NSCLC) was greater than 1 µM. For the same compound, the TGI (SNB-19 CNS) was greater than 1 µM, the TGI (MALME-3M melanoma) was greater than 1 µM and the TGI (HCC-2998 colon) was greater than 1 µM. The TGI (SK-MEL-28 melanoma) was greater than 1 µM, the TGI (786-0 renal) was greater than 1 µM and the TGI (MOLT-4 leukemia) was greater than 1 µM. It also gave a TGI (CCRF-CEM leukemia) greater than 1 µM, a TGI (HS 578T breast) greater than 1 µM and a TGI (HCT-116 colon) greater than 1 µM. It also gave a TGI (BT-549 breast) greater than 1 µM, a TGI (RXF 393 renal) greater than 1 µM and a TGI (HCT-15 colon) greater than 1 µM. For the same compound, the TGI (SK-MEL-2 melanoma) was greater than 1 µM, the TGI (K-562 leukemia) was greater than 1 µM and the TGI (T-47D breast) was greater than 1 µM. For the same compound, the TGI (RPMI-8226 leukemia) was greater than 1 µM, the TGI (SF-295 CNS) was greater than 1 µM and the TGI (HT29 colon) was greater than 1 µM. For the same compound, the TGI (M14 melanoma) was greater than 1 µM, the TGI (TK-10 renal) was greater than 1 µM and the TGI (OVCAR-5 ovarian) was greater than 1 µM. It also gave a TGI (NCI-H226 lung) greater than 1 µM, a TGI (NCI-H460 lung) greater than 1 µM and a TGI (PC-3 prostate) greater than 1 µM. It also gave a TGI (DU-145 prostate) greater than 1 µM, a TGI (SF-539 CNS) greater than 1 µM and a TGI (LOX IMVI melanoma) greater than 1 µM. For the same compound, the TGI (IGROV1 ovarian) was greater than 1 µM, the TGI (U251 CNS) was greater than 1 µM and the TGI (SF-268 CNS) was greater than 1 µM. The TGI (UACC-62 melanoma) was greater than 1 µM, the TGI (MDA-MB-231 breast) was greater than 1 µM and the TGI (MDA-MB-435) was greater than 1 µM. It also gave a TGI (SK-MEL-5 melanoma) greater than 1 µM and a TGI (HL-60(TB) leukemia) greater than 1 µM.
